Measured values: patent US10653617B2, “Compositions of additives to ginger-curcumin to facilitate growth of fibroblasts and collagen” (priority 2016, dated 2020)

Columns and labels:
Human dermal fibroblasts [1] = details: cited from earlier work
Human dermal fibroblasts [2] = experiment: Fibroblast cytotoxicity assay; assay type: cell-based; details: 72 hours; for concentration up to which non-toxic (all concentrations evaluated): agent tested individually, KBM, 1.5 mM calcium; for growth-inhibition/cytotoxicity of the individual agent: agent tested individually over a wide range of concentrations
Experimental: Human dermal fibroblasts were isolated from skin biopsies and grown in monolayer culture using DMEM supplemented with 10% fetal bovine serum as culture medium. Growth was at 37° C. in a humidified atmosphere containing 5% CO2 and 95% air. For experimental studies, cells were plated at 5×10^4 cells per well in wells of a 24-well culture dish in the same culture medium. One day later, cells were washed and the DMEM culture medium was replaced with KBM. Human dermal fibroblasts were treated with culture medium (KBM) supplemented with a concentration of calcium (1.5 mM) that supports fibroblast survival on its own. Reagents to be tested for cytotoxicity and/or growth inhibition were included in the culture medium and the cells incubated for 72 hours.

Compound	concentration up to which non-toxic (all concentrations evaluated) (Human dermal fibroblasts [2])	growth-inhibition/cytotoxicity of the individual agent (Human dermal fibroblasts [2])	other results
CC1=C(/C=C/C(C)=C/C=C/C(C)=C/C(=O)O)C(C)(C)CCC1 [ATRA, all-trans retinoic acid]			concentrations that are effective in this assay (Human dermal fibroblasts [1]): 1 to 10 µM
O=C1O[C@H]([C@@H](O)CO)C(O)=C1O [L-ascorbic acid]	up to 200 μg/mL		
CS(C)(=O)=O [MSM, dimethyl sulfone]		levels that produced growth-inhibition/cytotoxicity were achieved	
CCCCCCCCCCCCOS(=O)(=O)[O-].[Na+] [SLS, sodium lauryl sulfate]		levels that produced growth-inhibition/cytotoxicity were achieved	
COc1cc(/C=C/C(=O)CC(=O)/C=C/c2ccc(O)c(OC)c2)ccc1O [curcumin]		levels that produced growth-inhibition/cytotoxicity were achieved	
hyaluronan	≤ 20 µg/mL		
